The values below come from US7238813B2, “Chemical compounds” (Smithkline Beecham Corporation, priority 2000, dated 2007).

Assay [1] concerns Human umbilical cord endothelial cells (HUVEC). The assay is described as follows: VEGF-driven cellular proliferation assay: BrdU incorporation assay (VEGF-C). Set-up: key to VEGF-C: + = pIC50 of 5.0–6.0; ++ = pIC50 of 6.0–7.0; +++ = pIC50 of > 7.0; − = a negative or inconclusive result. The note with it: for IC50: Homo sapiens. Type of assay: cell-based. The procedure:
VFGF-driven Cellular Proliferation Assay: BrdU Incorporation Assay (VEGF-C)
Human umbilical cord endothelial cells (HUVEC, Clonetics, CC2519) were passaged in Type I collagen-coated 100-mm petridishes in EGM-MV medium (Clonetics, CC3125) at 37° C. in a humidified 5% CO2, 95% air incubator. (HUVEC passaged more than 6 times in vitro were discarded and not subjected to assaying.) The cells were harvested using trypsin/EDTA, counted using a haemocytometer and plated at 5000 cells/well in a Type I-collagen coated 96-well plate (Becton Dickinson, 354407) in M199 medium (Gibco BRL, 12340-030) containing 5% FBS (Hyclone, A 1115-L) and gentamicin (at 50 μg/ml, Gibco BRL). After incubation overnight at 37° C., the media were replaced with 100 μl of M199 serum-free medium containing compounds at various concentrations with 0.6% DMSO and gentamicin. The compounds were diluted in serum-free M199 medium from 10 mM stock solutions prepared in 100% DMSO. After a 30 min incubation at 37° C., the cells were fed with 100 μl of serum-free M199 medium containing gentamicin, 0.2% culture-grade bovine serum albumin (BSA, Sigma A1993) and 20 ng/ml of VEGF (R&D systems, 293-VE) or 0.6 ng/ml of basic FGF (R&D systems, 233-FB), and cultured at 37° C. for another 24 h. The cells were pulsed with bromodeoxyuridine (BrdU at 10 μM in serum-free M199) at 37° C. for an additional 24 h. The incorporation of BrdU into the proliferating HUVEC were analyzed using BrdU Cell Proliferation ELISA (Roche Molecular Biochemicals, 1647229) according to the manufacturer's protocols. The optical density at 450 nm was measured with a multilabel counter (ARVO SX, Wallac). The percent inhibition of cell growth was calculated relative to blank control wells. The concentration of test compound that inhibits 50% of cell growth (IC50) was interpolated using nonlinear regression (Levernberg-Marquardt) and the equation, y=Vmax (1−x/(K+x))+Y2, where “K” was equal to the IC50. The IC50, values were converted to pIC50 values, i.e., −log IC50 in Molar concentration.
In general terms: Incorporation of labelled thymidine or its analogues reports DNA synthesis.

In assay [2] the target is T1, TIE2 intracellular domain/c-fms extracellular domain (TIE2/c-fms) chimeric protein expressing mouse 3T3 cells (Homo sapiens, UniProt Q02763).
T1 construct: a TIE2 intracellular domain/c-fms extracellular domain (TIE2/c-fms) chimeric protein; expressed in transfected cells; host or cells: mouse 3T3 cells
The assay is described as follows: TIE-2 autophosphorylation assay (TIE2-C), ELISA. In kind it is cell-based. The note with it: TIE2/c-fms 3T3 cells, MCSF activation. The method, boiled down: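 Mouse 3T3 cells expressing TIE2 intracellular/c-fms extracellular chimera treated with compound for 1 hr in serum-free DMEM (0.1% DMSO), then stimulated with MCSF. Lysates captured on anti-c-fms plates overnight at 4 °C; phosphotyrosine detected by biotin-PT66/HRP-streptavidin, OD450. IC50 by nonlinear regression, reported as pIC50.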
In general terms: An ELISA detects its analyte on a solid surface through an enzyme-linked reagent.

The target of assay [3] is T2, GST-TIE2 (intracellular domains of human TIE2) (Homo sapiens, UniProt Q02763).
T2 construct: made in house
As to the kind of experiment: TIE-2 enzyme assay (TIE2-E), LANCE method. The note with it: 80 uM ATP. In kind it is biochemical. The method, boiled down: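 Baculovirus GST-TIE2 (human intracellular domain, aa 762–1104) preactivated 30 min at RT with 2 mM ATP, then reacted 30 min at RT with 1 μM D1-15 peptide, 80 uM ATP, 10 mM MgCl2, pH 7.4, 2.4% DMSO. EDTA-stopped; LANCE Eu-anti-pTyr/streptavidin-APC read-out. IC50 by nonlinear regression, reported as pIC50.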
For orientation: TR-FRET usually uses a lanthanide donor and a delayed reading to cut background.

Another assay deals with T3, GST-VEGFR2 (Homo sapiens, UniProt P35968).
T3 construct: GST-VEGFR2, baculovirus expressed recombinant constructs of the intracellular domains of human TIE2 tagged by GST; made in house
The assay is described as follows: VEGF-R2 enzyme assay (VEGF-E), LANCE method. In kind it is biochemical. The note with it: 75 μM ATP.

Where a name gives a salt, the structure may show the parent alone. A value given as a limit tells only on which side of the number the result lay.

T3 sequence (P35968 786-1356 limits assumed): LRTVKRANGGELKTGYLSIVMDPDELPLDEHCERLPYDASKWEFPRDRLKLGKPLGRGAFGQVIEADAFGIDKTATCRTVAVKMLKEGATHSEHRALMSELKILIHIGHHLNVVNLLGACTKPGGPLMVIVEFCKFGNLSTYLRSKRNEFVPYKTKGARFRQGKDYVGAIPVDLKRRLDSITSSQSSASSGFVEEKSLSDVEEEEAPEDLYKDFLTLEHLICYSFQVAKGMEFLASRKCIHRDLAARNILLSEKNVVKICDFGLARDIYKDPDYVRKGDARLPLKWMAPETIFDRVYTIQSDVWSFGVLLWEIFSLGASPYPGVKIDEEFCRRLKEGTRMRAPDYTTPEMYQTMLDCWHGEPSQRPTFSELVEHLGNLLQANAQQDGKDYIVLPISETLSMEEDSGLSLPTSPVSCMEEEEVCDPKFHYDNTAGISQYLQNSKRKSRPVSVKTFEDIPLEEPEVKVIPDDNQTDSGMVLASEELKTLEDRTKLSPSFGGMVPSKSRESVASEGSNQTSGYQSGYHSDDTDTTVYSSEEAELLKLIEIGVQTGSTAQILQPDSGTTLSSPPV
T2 sequence (Q02763 762-1104): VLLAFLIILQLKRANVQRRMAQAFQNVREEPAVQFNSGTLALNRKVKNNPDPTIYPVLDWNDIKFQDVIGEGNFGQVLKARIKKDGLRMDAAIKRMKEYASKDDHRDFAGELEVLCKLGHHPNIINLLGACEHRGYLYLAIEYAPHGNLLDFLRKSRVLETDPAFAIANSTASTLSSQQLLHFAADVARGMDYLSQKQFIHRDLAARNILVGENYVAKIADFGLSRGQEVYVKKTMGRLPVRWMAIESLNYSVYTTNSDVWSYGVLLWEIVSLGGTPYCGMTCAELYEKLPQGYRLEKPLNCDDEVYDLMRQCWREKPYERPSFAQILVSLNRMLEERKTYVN
T1 sequence (Q02763 770-1124 limits assumed, change not shown): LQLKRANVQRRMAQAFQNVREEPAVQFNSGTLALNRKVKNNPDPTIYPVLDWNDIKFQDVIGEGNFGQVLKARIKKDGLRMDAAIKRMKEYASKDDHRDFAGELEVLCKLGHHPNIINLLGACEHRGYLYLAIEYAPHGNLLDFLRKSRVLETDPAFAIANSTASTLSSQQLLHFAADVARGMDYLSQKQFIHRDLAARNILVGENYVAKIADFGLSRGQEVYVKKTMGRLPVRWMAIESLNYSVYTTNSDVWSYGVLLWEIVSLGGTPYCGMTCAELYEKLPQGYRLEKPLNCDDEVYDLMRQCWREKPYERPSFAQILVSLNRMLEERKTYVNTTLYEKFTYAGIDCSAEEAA

In general, IC50 refers to the concentration needed to halve the response being measured. For the compound `COC(=O)Nc1nc2cc(Oc3ccc(NC(=O)Nc4cccc(C(F)(F)F)c4)cn3)ccc2[nH]1` [Example 38], the VEGF-C result in assay [1] is “−”. Also, the IC50 (in assay [2]; in assay [3]; on GST-VEGFR2) was < 100 nM throughout.

`COC(=O)Nc1nc2cc(Oc3ccc(NC(=O)Nc4cc([N+](=O)[O-])ccc4F)cc3)ccc2[nH]1` [Example 46, Methyl N-(5-(4-((2-fluoro-5-nitrophenyl)aminocarbonylamino)phenoxy)-1H-benzimidazol-2-yl)carbamate]: in assay [1], the VEGF-C entry is listed as “−”. The IC50 (in assay [2]; in assay [3]; at GST-VEGFR2) was < 100 nM throughout.

As for `Nc1nc2ccc(Oc3ccc(NC(=O)Nc4cc(C(F)(F)F)ccc4F)cc3)cc2[nH]1` [Example 22, 2-Amino-5-(4-((2-fluoro-5-(trifluoromethyl)phenyl)aminocarbonylamino)phenoxy)-1H-benzimidazole.], the IC50 in assay [1] is 1000 to 10000 nM; in assay [2] it was 1000 to 10000 nM; in assay [3], < 100 nM; on GST-VEGFR2, < 100 nM.

For the compound `O=C(Nc1ccc(Oc2ccc3nc(NC(=O)c4cccnc4)[nH]c3c2)cc1)Nc1cc(C(F)(F)F)ccc1F` [Example 93, N-(5-(4-((2-Fluoro-5-(trifluoromethyl)phenyl)aminocarbonylamino)phenoxy)-1H-benzimidazol-2-yl)-3-pyridinecarboxamide], the IC50 in assay [1] was 1000 to 10000 nM; in assay [2], < 100 nM; in assay [3], < 100 nM; at GST-VEGFR2, < 100 nM.

As to `O=C(Nc1ccc(Oc2ccc3[nH]c(NC(=O)c4c[nH]cn4)nc3c2)cc1)Nc1cc(C(F)(F)F)ccc1F` [Example 98, N-(5-(4-((2-Fluoro-5-(trifluoromethyl)phenyl)aminocarbonylamino)phenoxy)-1H-benzimidazol-2-yl)(1H-imidazole-4-carboxamide)dihydrochloride], the IC50 in assay [1] was 100 to 1000 nM; in assay [2], < 100 nM; in assay [3], < 100 nM; on GST-VEGFR2, < 100 nM.

On to `COC(=O)Nc1cn2cc(Oc3ccc(NC(=O)Nc4cc(C(F)(F)F)ccc4F)cc3)ccc2n1` [Example 68, Methyl N-(5-(4-((2-fluoro-5-(trifluoromethyl)phenyl)aminocarbonylamino)phenoxy)-3a-aza-2-indolyl)carbamate], for which the IC50 (in assay [1]; in assay [2]; in assay [3]; against GST-VEGFR2) was < 100 nM each time.

Take `COC(=O)Nc1nc2ccc(Oc3ccc(NC(=O)Nc4cc(C(F)(F)F)ccc4F)cc3)cc2n1CCN1CCOCC1` [Example 71, Methyl N-(6-(4-((2-fluoro-5-(trifluoromethyl)phenyl)aminocarbonylamino)phenoxy)-1-(2-(4-morpholino)ethyl)-1H-benzimidazol-2-yl)carbamate]: the IC50 was 1000 to 10000 nM in assay [1], 100 to 1000 nM in assay [2], < 100 nM in assay [3] and < 100 nM on GST-VEGFR2.

Turning to `COC(=O)Nc1nc2ccc(Sc3ccc(NC(=O)Nc4cccc(C(F)(F)F)c4)cc3)cc2[nH]1` [Example 2, Methyl N-(5-(4-((3-(trifluoromethyl)phenyl)aminocarbonylamino)phenylthio)-1H-benzimidazol-2-yl)carbamate], the half-inhibitory concentration (IC50) is 1000 to 10000 nM in assay [1], < 100 nM in assay [2], < 100 nM in assay [3] and < 100 nM at GST-VEGFR2.

As to `COC(=O)Nc1nc2ccc(Oc3ccc(NC(=O)Nc4cc(C(F)(F)F)ccc4F)cc3)cc2o1` [Example 115, Methyl N-(6-(4-((2-fluoro-5-(trifluoromethyl)phenyl)aminocarbonylamino)phenoxy)benzoxazol-2-yl)carbamate], the IC50 (in assay [1]; in assay [2]; in assay [3]; against GST-VEGFR2) was < 100 nM each time.

Regarding `CN1CCN(Cc2ccc(C(=O)Nc3nc4cc(Oc5ccc(NC(=O)Nc6cc(C(F)(F)F)ccc6F)cc5)ccc4[nH]3)cc2)CC1` [Example 87, N-(5-(4-((2-Fluoro-5-(trifluoromethyl)phenyl)aminocarbonylamino)phenoxy)-1H-benzimidazol-2-yl)-4-(4-methyl-1-piperazinomethyl)benzamide], the IC50 is 100 to 1000 nM in assay [1], < 100 nM in assay [2], < 100 nM in assay [3] and < 100 nM on GST-VEGFR2.

As to `COC(=O)Nc1nc2cc(Oc3ccc(NC(=O)Nc4cc(C(F)(F)F)ccc4Cl)cc3)ccc2[nH]1` [Example 43], the IC50 in assay [1] is 1000 to 10000 nM; in assay [2], < 100 nM; in assay [3] it was < 100 nM; against GST-VEGFR2, < 100 nM.

As for `CN(C)CCOC(=O)Nc1nc2cc(Oc3ccc(NC(=O)Nc4cc(C(F)(F)F)ccc4F)cc3)ccc2[nH]1` [Example 80, 2-(Dimethylamino)ethyl N-(5-(4-((2-fluoro-5-(trifluoromethyl)phenyl)aminocarbonylamino)phenoxy)-1H-benzimidazol-2-yl)carbamate], the IC50 (in assay [1]; in assay [2]; in assay [3]; against GST-VEGFR2) was < 100 nM in each case.

`O=C(Nc1ccc(Oc2ccc3[nH]c(NC(=O)C4CCCO4)nc3c2)cc1)Nc1cc(C(F)(F)F)ccc1F` (stereo not drawn) [Example 94]: the IC50 was 1000 to 10000 nM in assay [1], < 100 nM in assay [2], < 100 nM in assay [3] and < 100 nM against GST-VEGFR2.

For `COC(=O)Nc1nc2cc(Oc3ccc(NC(=O)Nc4cc(F)ccc4F)cc3)ccc2[nH]1` [Example 56, Methyl N-(5-(4-((2,5-difluorophenyl)aminocarbonylamino)phenoxy)-1H-benzimidazol-2-yl)carbamate], in assay [1], the VEGF-C entry is on record as “−”. In addition, the half-maximal inhibitory concentration (IC50) in assay [2] was < 100 nM; in assay [3] it was 100 to 1000 nM; against GST-VEGFR2, < 100 nM.

On to `CC(C)(C)OC(=O)Nc1nc2cc(Oc3ccc(NC(=O)Nc4cc(C(F)(F)F)ccc4F)cc3)ccc2[nH]1` [Example 18, t-Butyl N-(5-(4-((2-fluoro-5-(trifluoromethyl)phenyl)aminocarbonylamino)phenoxy)-1H-benzimidazol-2-yl)carbamate], for which the IC50 (in assay [1]; in assay [2]; in assay [3]; on GST-VEGFR2) was < 100 nM in each case.

For the compound `COC(=O)Nc1nc2cc(Sc3ccc(NC(=O)Nc4cc(C(F)(F)F)ccc4Cl)cc3)ccc2[nH]1.Cl` [Example 51, Methyl N-(5-(4-((2-chloro-5-(trifluoromethyl)phenyl)aminocarbonylamino)phenylthio)-1H-benzimidazol-2-yl)carbamate hydrochloride], in assay [1], the VEGF-C result is “−”. For the same compound, the IC50 (in assay [2]; in assay [3]; against GST-VEGFR2) was < 100 nM in each case.

For the compound `COC(=O)Nc1nc2cc(Oc3ccc(NC(=O)Nc4cc(C(F)(F)F)ccc4F)cn3)ccc2[nH]1` [Example 37, Methyl N-(5-(5-((2-fluoro-5-(trifluoromethyl)phenyl)aminocarbonylamino)-2-pyridyloxy)-1H-benzimidazol-2-yl)carbamate], the VEGF-C result in assay [1] is given as “−”. Further, the IC50 (in assay [2]; in assay [3]; against GST-VEGFR2) was < 100 nM each time.

For `COCC(=O)Nc1nc2cc(Oc3ccc(NC(=O)Nc4cc(C(F)(F)F)ccc4F)cc3)ccc2[nH]1` [Example 31, N-(5-(4-((2-Fluoro-5-(trifluoromethyl)phenyl)aminocarbonylamino)phenoxy)-1H-benzimidazol-2-yl)-2-methoxyacetamide], the IC50 (in assay [1]; in assay [2]; in assay [3]; at GST-VEGFR2) was < 100 nM throughout.
